According to patent publication US7265129B2, “Anti-infective biaryl compounds” (priority 2002, dated 2007):

Columns and labels:
[1] = tested on: S. aureus ATCC 33591; test: MIC, NCCLS broth microdilution, S. aureus ATCC 33591; format: cell-based, Staphylococcus aureus
Source text: (§1) It vitro biological activity data were collected for a variety of microorganisms, including Bacillus cereus (ATCC 11778), Staphylococcus aureus (ATCC 33591; ATCC 27660, a methicillin resistant strain (MRSA); ATCC 13709, a methicillin sensitive strain (MSSA)), Enterococcus faecalis (ATCC 29212), and Streptococcus pneumoniae (ATCC 49619). Additionally, antifungal activity data were collected for Candida albicans (ATCC 38247).
(§2) Compounds according to this invention were screened for their in vitro activities against selected species of bacteria and fungi. The minimal inhibition concentration (MIC) of these compounds was determined using the National Committee for Clinical Laboratory Standards (NCCLS) broth microdilution assay in microtiter plates, as set forth in: (1) the guidelines of the National Committee for Clinical Laboratory Standards (NCCLS) Document M7-A4 (NCCLS, 1997); (2) the guidelines of the National Committee for Clinical Laboratory Standards (NCCLS) Document M11-A4 (NCCLS, 1997); and (3) the guidelines and reference method of the National Committee for Clinical Laboratory Standards (NCCLS) Document M27-T (NCCLS, 1995). For antifungal assays, the method recommended in Murray, P R., 1995 Manual of Clinical Microbiology (ASM Press, Washington, D.C.), was employed.

[2] = tested on: C. albicans ATCC 38247; test: MIC, antifungal assay, C. albicans; format: cell-based, Candida albicans
Source text: as §1, §2

[3] = tested on: S. aureus ATCC 13709; test: MIC, NCCLS broth microdilution, S. aureus MSSA; format: cell-based, Staphylococcus aureus; settings: S. aureus ATCC 13709, methicillin sensitive strain (MSSA)
Source text: as §1, §2

[4] = tested on: S. aureus ATCC 27660; test: MIC, NCCLS broth microdilution, S. aureus MRSA; format: cell-based, Staphylococcus aureus; settings: S. aureus ATCC 27660, methicillin resistant strain (MRSA)
Source text: as §1, §2

[5] = tested on: S. pneumoniae ATCC 49619; test: MIC, NCCLS broth microdilution, S. pneumoniae; format: cell-based, Streptococcus pneumoniae
Source text: as §1, §2

[6] = tested on: B. cereus ATCC 11778; test: MIC, NCCLS broth microdilution, B. cereus; format: cell-based, Bacillus cereus
Source text: as §1, §2

[7] = tested on: E. faecalis ATCC 29212; test: MIC, NCCLS broth microdilution, E. faecalis; format: cell-based, Enterococcus faecalis
Source text: as §1, §2

Row | Compound | Minimum Inhibitory Concentration (MIC), organism F [1] | Minimum Inhibitory Concentration (MIC), organism B [2] | Minimum Inhibitory Concentration (MIC), organism D [3] | Minimum Inhibitory Concentration (MIC), organism E [4] | Minimum Inhibitory Concentration (MIC), organism G [5] | Minimum Inhibitory Concentration (MIC), organism A [6] | Minimum Inhibitory Concentration (MIC), organism C [7]
1 | CN(C)CCCn1cc(NC(=O)c2ccc(Cl)cc2F)cc1C(=O)Nc1cc(-c2nc3cccnc3[nH]2)n(C)c1 [Compound A-39] | +++ (MIC ≦ 4 μg/mL) | + (12 ≦ MIC ≦ 32 μg/mL) | +++ (MIC ≦ 4 μg/mL) | +++ (MIC ≦ 4 μg/mL) | +++ (MIC ≦ 4 μg/mL) | +++ (MIC ≦ 4 μg/mL) | +++ (MIC ≦ 4 μg/mL)
2 | CN(C)CCCn1cc(NC(=O)c2sc3ccccc3c2Cl)cc1C(=O)Nc1cc(-c2nc3ccccc3[nH]2)n(C)c1 [Compound A-22] |  | + (12 ≦ MIC ≦ 32 μg/mL) | ++ (4 < MIC < 12 μg/mL) | ++ (4 < MIC < 12 μg/mL) | ++ (4 < MIC < 12 μg/mL) | +++ (MIC ≦ 4 μg/mL) | ++ (4 < MIC < 12 μg/mL)
3 | Cn1cc(NC(=O)c2cc(NC(=O)c3ccc(Cl)cc3F)cn2CCCN2CCC(O)CC2)cc1-c1nc2ccccc2[nH]1 [Compound A-34] | +++ (MIC ≦ 4 μg/mL) | + (12 ≦ MIC ≦ 32 μg/mL) | +++ (MIC ≦ 4 μg/mL) | +++ (MIC ≦ 4 μg/mL) | +++ (MIC ≦ 4 μg/mL) | +++ (MIC ≦ 4 μg/mL) | +++ (MIC ≦ 4 μg/mL)
4 | CC1CCN(CCCn2cc(NC(=O)c3ccc(Cl)cc3F)cc2C(=O)Nc2cc(-c3nc4ccccc4[nH]3)n(C)c2)CC1 [Compound A-38] | +++ (MIC ≦ 4 μg/mL) | + (12 ≦ MIC ≦ 32 μg/mL) | +++ (MIC ≦ 4 μg/mL) | +++ (MIC ≦ 4 μg/mL) | +++ (MIC ≦ 4 μg/mL) | +++ (MIC ≦ 4 μg/mL) | +++ (MIC ≦ 4 μg/mL)
5 | Cn1cc(NC(=O)c2cc3ccccc3cn2)cc1C(=O)Nc1cc(-c2nc3ccc(N)cc3[nH]2)n(C)c1 [Compound A-8] | +++ (MIC ≦ 4 μg/mL) | >32 µg/mL | +++ (MIC ≦ 4 μg/mL) | +++ (MIC ≦ 4 μg/mL) | +++ (MIC ≦ 4 μg/mL) | ++ (4 < MIC < 12 μg/mL) | +++ (MIC ≦ 4 μg/mL)
6 | Cn1cc(NC(=O)c2cc(NC(=O)c3sc4ccccc4c3Cl)cn2CCC[n+]2ccccc2)cc1-c1nc2ccccc2[nH]1 [Compound A-27] | ++ (4 < MIC < 12 μg/mL) | + (12 ≦ MIC ≦ 32 μg/mL) | ++ (4 < MIC < 12 μg/mL) | ++ (4 < MIC < 12 μg/mL) | + (12 ≦ MIC ≦ 32 μg/mL) | + (12 ≦ MIC ≦ 32 μg/mL) | + (12 ≦ MIC ≦ 32 μg/mL)
7 | Cn1cc(NC(=O)c2cc(NC(=O)c3ccc(Cl)cc3F)cn2CCCN(CCO)CCO)cc1-c1nc2ccccc2[nH]1 [Compound A-36] | +++ (MIC ≦ 4 μg/mL) | + (12 ≦ MIC ≦ 32 μg/mL) | ++ (4 < MIC < 12 μg/mL) | +++ (MIC ≦ 4 μg/mL) | +++ (MIC ≦ 4 μg/mL) | ++ (4 < MIC < 12 μg/mL) | +++ (MIC ≦ 4 μg/mL)
8 | CN(C)CCCn1cc(NC(=O)c2ccc(F)cc2F)cc1C(=O)Nc1cc(-c2nc3ncncc3[nH]2)n(C)c1 [Compound A-19] | + (12 ≦ MIC ≦ 32 μg/mL) | >32 µg/mL | + (12 ≦ MIC ≦ 32 μg/mL) | + (12 ≦ MIC ≦ 32 μg/mL) | +++ (MIC ≦ 4 μg/mL) | + (12 ≦ MIC ≦ 32 μg/mL) | ++ (4 < MIC < 12 μg/mL)
9 | Cn1cc(NC(=O)c2cc(NC(=O)c3sccc3Cl)cn2CCC[n+]2ccccc2)cc1-c1nc2ccccc2[nH]1 [Compound A-56] | + (12 ≦ MIC ≦ 32 μg/mL) | >32 µg/mL | + (12 ≦ MIC ≦ 32 μg/mL) | + (12 ≦ MIC ≦ 32 μg/mL) | >32 µg/mL | >32 µg/mL | >32 µg/mL
10 | Cn1cc(NC(=O)c2cc(NC(=O)c3sc4ccccc4c3Cl)cn2CCCN2CCCCC2)cc1-c1nc2ccccc2[nH]1 [Compound A-23] | +++ (MIC ≦ 4 μg/mL) | + (12 ≦ MIC ≦ 32 μg/mL) | +++ (MIC ≦ 4 μg/mL) | +++ (MIC ≦ 4 μg/mL) | +++ (MIC ≦ 4 μg/mL) | +++ (MIC ≦ 4 μg/mL) | +++ (MIC ≦ 4 μg/mL)
11 | CN(C)CCCn1cc(NC(=O)c2cc3ccccc3cn2)cc1C(=O)Nc1cc(-c2nc3ncncc3[nH]2)n(C)c1 [Compound A-15] | + (12 ≦ MIC ≦ 32 μg/mL) | >32 µg/mL | + (12 ≦ MIC ≦ 32 μg/mL) | + (12 ≦ MIC ≦ 32 μg/mL) | +++ (MIC ≦ 4 μg/mL) | + (12 ≦ MIC ≦ 32 μg/mL) | ++ (4 < MIC < 12 μg/mL)
12 | Cn1cc(NC(=O)c2cc3ccccc3cn2)cc1C(=O)Nc1cc(-c2nc3ccc(OC(=O)CCN4CCOCC4)cc3[nH]2)n(C)c1 [Compound A-9] | +++ (MIC ≦ 4 μg/mL) | >32 µg/mL | +++ (MIC ≦ 4 μg/mL) | +++ (MIC ≦ 4 μg/mL) | +++ (MIC ≦ 4 μg/mL) | +++ (MIC ≦ 4 μg/mL) | +++ (MIC ≦ 4 μg/mL)
13 | Cn1cc(NC(=O)c2cc(NC(=O)c3ccc(Cl)cc3F)cn2CCCN2CCC(F)(F)CC2)cc1-c1nc2ccccc2[nH]1 [Compound A-35] | +++ (MIC ≦ 4 μg/mL) | >32 µg/mL | +++ (MIC ≦ 4 μg/mL) | +++ (MIC ≦ 4 μg/mL) | +++ (MIC ≦ 4 μg/mL) | +++ (MIC ≦ 4 μg/mL) | +++ (MIC ≦ 4 μg/mL)
14 | Cn1cc(NC(=O)c2cc(NC(=O)c3sc4ccccc4c3Cl)cn2CCCN2CCC(F)(F)CC2)cc1-c1nc2ccccc2[nH]1 [Compound A-25] | + (12 ≦ MIC ≦ 32 μg/mL) | >32 µg/mL | + (12 ≦ MIC ≦ 32 μg/mL) | + (12 ≦ MIC ≦ 32 μg/mL) | ++ (4 < MIC < 12 μg/mL) | >32 µg/mL | + (12 ≦ MIC ≦ 32 μg/mL)
15 | COc1cc(Cl)ccc1C(=O)Nc1cc(C(=O)Nc2cc(-c3nc4ccccc4[nH]3)n(C)c2)n(CCCN(C)C)c1 [Compound A-21] |  | + (12 ≦ MIC ≦ 32 μg/mL) | ++ (4 < MIC < 12 μg/mL) | +++ (MIC ≦ 4 μg/mL) | +++ (MIC ≦ 4 μg/mL) | +++ (MIC ≦ 4 μg/mL) | +++ (MIC ≦ 4 μg/mL)
16 | COc1cc(F)ccc1C(=O)Nc1cc(C(=O)Nc2cc(-c3nc4ccccc4[nH]3)n(C)c2)n(CCCN(C)C)c1 [Compound A-20] |  | + (12 ≦ MIC ≦ 32 μg/mL) | +++ (MIC ≦ 4 μg/mL) | +++ (MIC ≦ 4 μg/mL) | +++ (MIC ≦ 4 μg/mL) | +++ (MIC ≦ 4 μg/mL) | +++ (MIC ≦ 4 μg/mL)
